Here are results for one compound from publication PMC6934184, “Selective DNA-PKcs inhibition extends the therapeutic index of localized radiotherapy and chemotherapy” (The Journal of Clinical Investigation, 2019).

This assay addresses T1, JAK3 (Homo sapiens, UniProt P52333).
T1 construct: purchased Thermo Fisher Scientific (Life Technologies) SelectScreen
Nature of the assay: SelectScreen Z'LYTE. Type of assay: biochemical. Put shortly: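 SelectScreen broad panel; activity (Z'LYTE, Adapta) plus binding formats. ATP: Km app for CSF1R Z'LYTE; 10 for CAMK1 Adapta. Readout = % per kinase.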

The term inhibition denotes the share of the control response that was lost under treatment. Read a low inhibition as a response near the control.

T1 sequence (P52333 whole entry): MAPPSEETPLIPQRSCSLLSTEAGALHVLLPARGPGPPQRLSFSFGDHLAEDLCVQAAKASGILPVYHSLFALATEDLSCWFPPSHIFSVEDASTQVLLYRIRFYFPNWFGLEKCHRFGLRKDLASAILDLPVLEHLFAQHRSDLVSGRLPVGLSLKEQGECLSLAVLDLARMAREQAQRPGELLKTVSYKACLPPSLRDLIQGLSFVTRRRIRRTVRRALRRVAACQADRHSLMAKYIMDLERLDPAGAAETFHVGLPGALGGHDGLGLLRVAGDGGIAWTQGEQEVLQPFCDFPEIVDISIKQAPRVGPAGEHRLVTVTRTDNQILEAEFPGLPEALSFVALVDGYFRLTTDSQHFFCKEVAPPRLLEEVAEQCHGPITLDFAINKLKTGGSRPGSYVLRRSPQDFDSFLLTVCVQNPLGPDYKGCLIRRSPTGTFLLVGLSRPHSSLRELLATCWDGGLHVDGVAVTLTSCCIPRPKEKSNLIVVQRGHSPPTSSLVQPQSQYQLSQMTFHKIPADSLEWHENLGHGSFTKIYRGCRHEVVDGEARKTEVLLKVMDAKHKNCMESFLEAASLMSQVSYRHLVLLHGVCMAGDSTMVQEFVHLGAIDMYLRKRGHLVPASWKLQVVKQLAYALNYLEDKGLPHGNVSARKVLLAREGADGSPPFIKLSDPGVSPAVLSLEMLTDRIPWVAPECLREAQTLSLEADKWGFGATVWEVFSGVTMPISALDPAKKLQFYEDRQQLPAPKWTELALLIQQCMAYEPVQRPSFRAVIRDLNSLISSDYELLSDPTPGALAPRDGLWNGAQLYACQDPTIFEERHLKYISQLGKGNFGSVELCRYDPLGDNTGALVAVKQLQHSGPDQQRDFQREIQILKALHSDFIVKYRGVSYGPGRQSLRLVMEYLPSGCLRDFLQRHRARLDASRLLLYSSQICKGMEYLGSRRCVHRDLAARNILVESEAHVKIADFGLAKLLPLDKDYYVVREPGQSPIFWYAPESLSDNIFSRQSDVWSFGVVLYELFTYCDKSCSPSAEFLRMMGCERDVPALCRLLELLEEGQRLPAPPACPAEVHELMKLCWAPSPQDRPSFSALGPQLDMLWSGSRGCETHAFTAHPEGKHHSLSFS

On to `CN(C(=O)CN1CCOCC1)c1ccc2sc3c(-c4cccc5c(=O)cc(N6CC7CCC(C6)O7)oc45)cccc3c2c1` [NU5455], for which testing at 1 µM gave an inhibition of 6%.
